# Assays:
# [1] = test system: HCC-PDX model LIM1025 (code 002); assay: Sorafenib antitumor activity in HCC HuPrime PDX model LIM1025; assay type: in vivo, Balb/c nude mice; details: 50 mg/kg p.o. qd × 14, P value <0.001
# Excerpt: (§1) Patient tumor samples and engraftment in immunocompromised mice. […] (<10).
# (§2) Evaluation of antitumor activity.
# [2] = test system: HCC-PDX model LIM752 (code 003); assay: Sorafenib antitumor activity in HCC HuPrime PDX model LIM752; assay type: in vivo, Balb/c nude mice; details: 50 mg/kg p.o. qd × 14, P value <0.001
# Excerpt: as §1, §2
# [3] = test system: HCC-PDX model LIM1081 (code 004); assay: Sorafenib antitumor activity in HCC HuPrime PDX model LIM1081; assay type: in vivo, Balb/c nude mice; details: 50 mg/kg p.o. qd × 13, P value 0.015
# Excerpt: as §1, §2
# [4] = test system: HCC-PDX model LIM1098 (code 005); assay: Sorafenib antitumor activity in HCC HuPrime PDX model LIM1098; assay type: in vivo, Balb/c nude mice; details: 50 mg/kg qd × 14 p.o., P value 0.008
# Excerpt: as §1, §2
# [5] = test system: HCC-PDX model LIM612 (code 006); assay: Sorafenib antitumor activity in HCC HuPrime PDX model LIM612; assay type: in vivo, Balb/c nude mice; details: 50 mg/kg p.o. Qd × 22, P value 0.001
# Excerpt: as §1, §2
# [6] = test system: HCC-PDX model LIM1035 (code 007); assay: Sorafenib antitumor activity in HCC HuPrime PDX model LIM1035; assay type: in vivo, Balb/c nude mice; details: 50 mg/kg p.o. qd × 14, P value 0.005
# Excerpt: as §1, §2
# [7] = test system: HCC-PDX model LIM1005 (code 008); assay: Sorafenib antitumor activity in HCC HuPrime PDX model LIM1005; assay type: in vivo, Balb/c nude mice; details: 50 mg/kg p.o. qd × 14, P value 0.015
# Excerpt: as §1, §2
# [8] = test system: HCC-PDX model LIM574 (code 009); assay: Sorafenib antitumor activity in HCC HuPrime PDX model LIM574; assay type: in vivo, Balb/c nude mice; details: 50 mg/kg p.o. qd × 14, P value 0.002
# Excerpt: as §1, §2
# [9] = test system: HCC-PDX model LIM941 (code 010); assay: Sorafenib antitumor activity in HCC HuPrime PDX model LIM941; assay type: in vivo, Balb/c nude mice; details: 50 mg/kg p.o. 5 days on/2 days off, P value <0.001
# Excerpt: as §1, §2
# [10] = test system: HCC-PDX model LIM1074 (code 011); assay: Sorafenib antitumor activity in HCC HuPrime PDX model LIM1074; assay type: in vivo, Balb/c nude mice; details: 50 mg/kg p.o. qd × 13, P value 0.032
# Excerpt: as §1, §2
# [11] = test system: HCC-PDX model LIM801 (code 012); details: 50 mg/kg p.o. 5 days on/2 days off, P value 0.001
# Excerpt: (§3) We were interested in identifying models that would respond or not respond to Sorafenib. To this end, we tested a cohort of randomly selected 21 HCC HuPrime by treating them with Sorafenib.
# (§4) Patient tumor samples and engraftment in immunocompromised mice. Freshly and surgically removed tumor tissues were obtained from the patients diagnosed as HCC through collaboration with the Beijing Keluoen Translational Medicine Institute and Hebei Medical University Fourth Hospital with approval by the Institutional Review Boards of Hebei Medical University Fourth Hospital and the informed consents from patients. The engraftments of patient tumor fragments into immunocompromised mice subcutaneously have been broadly described by others. Briefly, the tumors were sliced into 3×3×3 mm3 fragments and inoculated subcutaneously on the flank of mice (Balb/c nude, 6-8 wks old, female, Beijing HFK Bioscience Co. Ltd., Beijing, China). The tumor growth was monitored twice weekly by using a caliper. The established tumor models from these patient samples, called passage 0 or P0, were serially re-engrafted to maintain tumors, these subsequent passages were called P1, 2, 3 . . . (<10). […]
# [12] = test system: HCC-PDX model LIM1054 (code 013); assay: Sorafenib antitumor activity in HCC HuPrime PDX model LIM1054; assay type: in vivo, Balb/c nude mice; details: 50 mg/kg p.o. qd × 14, P value 0.045
# Excerpt: as §1, §2
# [13] = test system: HCC-PDX model LIM1097 (code 014); assay: Sorafenib antitumor activity in HCC HuPrime PDX model LIM1097; assay type: in vivo, Balb/c nude mice; details: 50 mg/kg p.o. qd × 14, P value 0.046
# Excerpt: as §1, §2
# [14] = test system: HCC-PDX model LIM1057 (code 015); assay: Sorafenib antitumor activity in HCC HuPrime PDX model LIM1057; assay type: in vivo, Balb/c nude mice; details: p.o. 50 mg/kg, qd × 14, P value 0.003
# Excerpt: as §1, §2
# [15] = test system: HCC-PDX model LIM1068 (code 016); assay: Sorafenib antitumor activity in HCC HuPrime PDX model LIM1068; assay type: in vivo, Balb/c nude mice; details: 50 mg/kg p.o. qd × 13, P value 0.024
# Excerpt: as §1, §2
# [16] = test system: HCC-PDX model LIF1069 (code 017); assay: Sorafenib antitumor activity in HCC HuPrime PDX model LIF1069; assay type: in vivo, Balb/c nude mice; details: 50 mg/kg p.o. qd × 14, P value 0.024
# Excerpt: as §1, §2
# [17] = test system: HCC-PDX model LIM1078 (code 018); assay: Sorafenib antitumor activity in HCC HuPrime PDX model LIM1078; assay type: in vivo, Balb/c nude mice; details: 50 mg/kg p.o. qd × 13, P value 0.055
# Excerpt: as §1, §2
# [18] = test system: HCC-PDX model LIM1088 (code 019); assay: Sorafenib antitumor activity in HCC HuPrime PDX model LIM1088; assay type: in vivo, Balb/c nude mice; details: 50 mg/kg p.o. qd × 13, P value 0.182
# Excerpt: as §1, §2
# [19] = test system: HCC-PDX model LIMsh050 (code 020); assay: Sorafenib antitumor activity in HCC HuPrime PDX model LIMsh050; assay type: in vivo, Balb/c nude mice
# Excerpt: as §3, §4
# [20] = test system: HCC-PDX model LIM334 (code 021); assay: Sorafenib antitumor activity in HCC HuPrime PDX model LIM334; assay type: in vivo, Balb/c nude mice
# Excerpt: as §1, §2
# [21] = test system: cohort of 21 hepatocellular carcinoma (HCC) patient derived xenografts (PDXs); assay: Clinical trial-like study of Sorafenib in a cohort of 21 HCC HuPrime PDXs; assay type: in vivo, Balb/c nude mice; details: 13 out of 21 PDXs; daily oral Sorafenib 50 mg/kg
# Excerpt: as §1, §2
# Patient derived xenografts (PDXs) are considered experimental models mimicking patient tumors, or “patient avatars”. We performed a clinical-like trial (phase II-like) using a cohort of 21 hepatocellular carcinoma (HCC) patient derived xenografts (PDXs), also called patient avatar trial, for testing their response to multi-kinase inhibitor Sorafenib. […] Gene expression profiles of these PDXs were analyzed to reveal the mRNA expression signatures that may be predictive of the response to Sorafenib. This signature can be potentially used to develop companion diagnostics to stratify patent treatment, or individualized treatment.
# [22] = test system: advanced hepatocellular carcinoma (HCC); details: background statement; cited from earlier work
smiles,measurement,setting,value
CNC(=O)c1cc(Oc2ccc(NC(=O)Nc3ccc(Cl)c(C(F)(F)F)c3)cc2)ccn1 [Sorafenib],ΔT/ΔC (day14-day15),[1],0.01
same,ΔT/ΔC (day14-day15),[2],0.10
same,ΔT/ΔC (day14-day15),[3],0.14
same,ΔT/ΔC (day14-day15),[4],0.14
same,ΔT/ΔC (day14-day15),[5],0.15
same,ΔT/ΔC (day14-day15),[6],0.16
same,ΔT/ΔC (day14-day15),[7],0.21
same,ΔT/ΔC (day14-day15),[8],0.21
same,ΔT/ΔC (day14-day15),[9],0.23
same,ΔT/ΔC (day14-day15),[10],0.35
same,ΔT/ΔC (day14-day15),[11],0.37
same,ΔT/ΔC (day14-day15),[12],0.38
same,ΔT/ΔC (day14-day15),[13],0.41
same,ΔT/ΔC (day14-day15),[14],0.43
same,ΔT/ΔC (day14-day15),[15],0.47
same,ΔT/ΔC (day14-day15),[16],0.47
same,ΔT/ΔC (day14-day15),[17],0.48
same,ΔT/ΔC (day14-day15),[18],0.54
same,model response to Sorafenib (in words),"[19]; model L10050, daily oral 50 mg/kg",quite or partially resistant
same,ΔT/ΔC (day14-day15),"[19]; model LIMsh050, 50 mg/kg p.o. qd × 14, P value 0.134",0.78
same,model response to Sorafenib (in words),"[20]; model L10334, daily oral 50 mg/kg",quite or partially resistant
same,ΔT/ΔC (day14-day15),"[20]; model LIM334, 50 mg/kg p.o. 5 days on/2 days off, P value 0.659",1.13
same,PDXs that achieved effective tumor growth inhibition with % ΔT/ΔC<40% (p<0.05),[21],62%
same,increase survival for HCC patients,[22],3 months

# Reference: patent US11136625B2, “Gene expression signatures predictive of subject response to a multi-kinase inhibitor and methods of using the same” (Crown Bioscience, Inc. (Taicang), priority 2013, dated 2021)
